Experimental data published in patent US10011616B2, “Boron-containing small molecules as antiprotozoal1 agents” (MMV MEDICINES FOR MALARIA VENTURE, priority 2015, dated 2018).
Structures can show the parent of a compound that is named as a salt.

Experiments:
[1] = tested on: W2 strain of Plasmodium falciparum; experiment: In vitro activity against W2 strain of Plasmodium falciparum (YOYO-1 flow cytometry); assay type: cell-based; conditions: Erythrocyte, 48 h, P. falciparum W2 in human erythrocytes, 2 d, growth inhibition, read-out: IC50: 1 Org. Growth P. falciparum W2, 2 d (LPS_00451)
Method: In Vitro Activity Against Plasmodium falciparum
b) Against W2 Strain of Plasmodium falciparum
W2 strain P. falciparum parasites were cultured in human erythrocytes and RPMI-1640 culture media with either 10% human serum or 0.5% Albumax serum substitute under 3% O2, 5% CO2, and 92% N2. Parasites synchronized to ring stage by treatments with 5% D-sorbitol were cultured with serial dilutions of benzoxaboroles from 5 to 10 mM stocks in 96 well microplate cultures including 200 μL of media/well, 2% hematocrit, and 1% parasitemia. At the completion of 48 h incubations, when untreated cultures contained new rings, parasites were fixed with 2% formaldehyde for 48 h, and 5 μL aliquots were transferred to another 96 well plate containing 150 μL/well of staining solution (100 mM NH4Cl, 0.1% Triton X-100, and 1 nM YOYO-1 in PBS). Parasites per erythrocyte were then determined by flow cytometry from plots of forward scatter against fluorescence (excitation 488 nm, emission 520 nm) using a FacSort flow cytometer (Beckton Dickinson) equipped with an AMS Loader (Cytek Development). All values were normalized to percent control activity, and IC50s were calculated using the Prism 3.0 program (GRAPHPAD Software). Goodness of fit was assessed by R^2 values, and meaningful dose-response curves yielded R^2 values >0.95.

[2] = tested on: 3D7 strain of Plasmodium falciparum; experiment: In vitro activity against 3D7 strain of Plasmodium falciparum ([3H]-hypoxanthine incorporation assay); assay type: cell-based; conditions: Erythrocyte, 48 h, P. falciparum 3D7 in human erythrocytes, 2 d, growth inhibition, read-out: IC50: 1 Org. Growth P. falciparum 3D7, 2 d (LPS_00570)
Method: In Vitro Activity Against Plasmodium falciparum a) Against 3D7 Strain of Plasmodium falciparum Inhibition of 3D7 strain parasites was assessed using the [^3H]-hypoxanthine incorporation assay (Desjardins, et al. Antimicrob. Agents Chemother. 1979, 16, 710-718). Briefly, parasites were cultured in human erythrocytes (from the Spanish Red Cross blood bank) using RPMI-1640 culture media (Gibco) supplemented with 0.5% Albumax II (Invitrogen), 2% D-sucrose (Sigma-Aldrich), 0.3% glutamine (Sigma-Aldrich), and 5 mM hypoxanthine (Sigma-Aldrich). Cultures were maintained at 37° C. at an atmosphere of 5% O2, 5% CO2, and […]. To assess inhibition, asynchronous parasite cultures with 0.5% parasitemia and 2% hematocrit were exposed to 3-fold serial dilutions of test compounds for 24 hours in 96 well plate cultures (Costar #3894). After 24 hours, [^3H]-hypoxanthine was added, plates were incubated for an additional 24 hours, and parasites were harvested on glass fiber filters (Wallac #1450-421) using a cell harvester 96 (TOMTEC, Perkin Elmer). Filters were dried on scintillator sheets (MeltiLex A, PerkinElmer #1450-441) to determine incorporation of [^3H]-hypoxanthine. Radioactivity was measured using a microbeta counter (Perkin Elmer). Data are normalized using the incorporation of the positive control (infected erythrocytes without drug). IC50 values were determined using Excel and Grafit 5 software. Values were determined from at least three independent experiments, and standard deviations were calculated.

SMILES | IC50 [1] | IC50 [2]
Cc1c(Oc2cnc(C(=O)N[C@@H](C)C(C)(C)O)cn2)ccc2c1B(O)OC2 [Example 47, (S)—N-(3-hydroxy-3-methylbutan-2-yl)-5-(1-hydroxy-7-methyl-1,3-dihydrobenzo[c][1,2]oxaborol-6-yloxy)pyrazine-2-carboxamide] | 202 nM | 327 nM
CC[C@H](NC(=O)c1cnc(Oc2ccc3c(c2C)B(O)OC3)cn1)C(C)(C)O [Example 53, (S)—N-(2-hydroxy-2-methylpentan-3-yl)-5-(1-hydroxy-7-methyl-1,3-dihydrobenzo[c][1,2]oxaborol-6-yloxy)pyrazine-2-carboxamide] | 279 nM | 829 nM
Cc1c(Oc2cnc(C(=O)N3CCNC[C@H]3CO)cn2)ccc2c1B(O)OC2 [Example 50, (S)-(5-(1-hydroxy-7-methyl-1,3-dihydrobenzo[c][1,2]oxaborol-6-yloxy)pyrazin-2-yl) (2-(hydroxymethyl)piperazin-1-yl)methanone Hydrochloric Acid Salt] | 98.2 nM | 171 nM
COCCNC(=O)c1cnc(Oc2ccc3c(c2C)B(O)OC3)cn1 [Example 2, 5-(1-hydroxy-7-methyl-1,3-dihydrobenzo[c][1,2]oxaborol-6-yloxy)-N-(2-methoxyethyl)pyrazine-2-carboxamide] | 788 nM | 644 nM
COC[C@H](CO)NC(=O)c1cnc(Oc2ccc3c(c2C)B(O)OC3)cn1 [Example 32, (S)—N-(1-hydroxy-3-methoxypropan-2-yl)-5-((1-hydroxy-7-methyl-1,3-dihydrobenzo[c][1,2]oxaborol-6-yl)oxy)pyrazine-2-carboxamide] | 512 nM | 796 nM
Cc1c(Oc2cnc(C(=O)NC(CO)CC(C)C)cn2)ccc2c1B(O)OC2 (stereo not shown) [Example 8, N-(1-hydroxy-4-methylpentan-2-yl)-5-((1-hydroxy-7-methyl-1,3-dihydrobenzo[c][1,2]oxaborol-6-yl)oxy)pyrazine-2-carboxamide] | 930 nM | 937 nM
Cc1c(Oc2cnc(C(=O)NC3(CO)CC3)cn2)ccc2c1B(O)OC2 [Example 17, 5-((1-hydroxy-7-methyl-1,3-dihydrobenzo[c][1,2]oxaborol-6-yl)oxy)-N-(1-(hydroxymethyl)cyclopropyl)pyrazine-2-carboxamide] | 2010 nM | 1500 nM
Cc1c(Oc2cnc(C(=O)NC(CO)Cc3ccccc3)cn2)ccc2c1B(O)OC2 (stereo not shown) [Example 15, N-(1-hydroxy-3-phenylpropan-2-yl)-5-(1-hydroxy-7-methyl-1,3-dihydrobenzo[c][1,2]oxaborol-6-yloxy)pyrazine-2-carboxamide] | 297 nM | 407 nM
